The values below come from US20190322676A1, “CERAMIDE GALACTOSYLTRANSFERASE INHIBITORS FOR THE TREATMENT OF DISEASE” (BioMarin Pharmaceutical Inc., priority 2016, published 2019).

The IC50 is the concentration that inhibits the measured activity by half.

Structures can show the parent of a compound that is named as a salt.

The target in the first assay is T1, human CGT (ceramide galactosyltransferase), CHO/CGT lysate (Homo sapiens, UniProt Q16880).
T1 construct: Full-length human CGT cDNA was cloned into the BamH1/Xho1 site of pcDNA3.1 (+); expressed in transfected cells; host or cells: Chinese hamster ovary (CHO) cells; lysate prepared with M-PER
T1 sequence (Q16880 21-541): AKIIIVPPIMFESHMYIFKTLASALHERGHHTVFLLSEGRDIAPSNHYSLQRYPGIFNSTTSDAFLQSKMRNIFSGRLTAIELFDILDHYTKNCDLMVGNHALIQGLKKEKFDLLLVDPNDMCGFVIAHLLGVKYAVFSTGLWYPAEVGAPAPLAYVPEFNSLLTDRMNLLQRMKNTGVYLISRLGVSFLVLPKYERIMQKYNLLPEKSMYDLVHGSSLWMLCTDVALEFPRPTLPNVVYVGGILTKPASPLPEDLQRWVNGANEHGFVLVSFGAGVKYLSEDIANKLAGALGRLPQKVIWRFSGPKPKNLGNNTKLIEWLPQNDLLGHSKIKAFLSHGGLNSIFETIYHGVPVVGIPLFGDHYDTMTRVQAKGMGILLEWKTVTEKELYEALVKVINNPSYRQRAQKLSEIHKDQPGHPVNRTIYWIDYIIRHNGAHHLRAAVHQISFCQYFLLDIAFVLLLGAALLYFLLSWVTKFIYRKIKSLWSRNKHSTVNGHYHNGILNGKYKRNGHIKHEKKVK
Nature of the assay: CGT enzyme assay, RapidFire/MS/MS readout with 0.01% Tween added (Table 1 ranges with two asterisks **). As to conditions: CGT enzymatic assay; range with two asterisks (**): RapidFire/MS/MS method with 0.01% Tween added. It is filed as biochemical. How it is done:
Full-length human CGT cDNA was cloned into the BamH1/Xho1 site of pcDNA3.1 (+) mammalian expression vector (V90-20, Invitrogen, Carlsbad, Calif.) and the plasmid was transfected into Chinese hamster ovary (CHO) cells. Lysate was prepared using M-PER (Mammalian Protein Extraction Reagent, ThermoFisher Scientific, Grand Island, N.Y.) in the presence of a protease inhibitor cocktail (P8340, Sigma, Saint Louis, Mo.). Each 100 mm dish (100% confluent, approximately 1×10^7 cells) was lysed with 250 μL of M-PER containing protease inhibitors. Protein concentration was determined using a Pierce BCA protein assay kit (ThermoFisher Scientific). Four micrograms of CHO/CGT lysate was incubated with various concentrations of a compound (0.001 μM-50 μM) in 10 mM HEPES (pH 7.2) containing 35 μM dioleoylphosphatidylcholine, 5 mM MgCl2, 5 mM MnCl2, 1% BSA, 15 mM KCl, 1 mM EGTA, 8 mM CHAPS, 10 μM C6-NBD-dihydro-ceramide and 17.5 μM UDP-galactose in a final reaction volume of 20 μL at 37° C. for 1 hour. The final concentration of DMSO was 0.5% in both compound-treated and mock-treated samples. Tween 80 (0.01%) was optionally added to the reaction mixture to help solubilize the compounds. Each individual reaction was diluted with 80 μL of methanol:acetronitrile (1:3) containing 5 μM N-docdecanoyl-NBD-galactosylceramide (internal standard) to stop the reaction. 200 μL H2O:acetonitile (1:1) was added to precipitate the protein. After sufficient mixing, the plates were centrifuged at 2469 g for 38 minutes, 200 μL of supernatant was transferred to a LC/MS 96-deep well plate and a second spin was performed at 2469 g for 10 minutes. The final supernatant was injected in triplicate for RapidFire/MS/MS analysis.
Quantitative Analysis Using the RapidFire/MS/MS Method:
The quantitative analysis of C6-NBD-dihydro-ceramide and C6-NBD-dihydro-galactosylceramide was performed on a Rapid Fire 360 high-throughput mass spectrometry system (Agilent Technologies, Palo Alto, Calif.) coupled with a API4000^+ triple quadrupole mass spectrometer (Applied Biosystems, Concord, Ontario, Canada). RapidFire software packages, including RapidFire Control panel, RapidFire UI and RapidFire Integrator (Agilent Technologies), were used to control the RapidFire instrument and to process data. Analyst 1.6.2 software packages (Applied Biosystems) were used to control the MS system and acquire MS data. […] of sample was loaded on a micro-scale C4 solid-phase extraction (SPE) cartridge (Agilent Technologies) and salts were removed using water supplemented with 0.1% formic acid at the flow rate of 1.5 mL/min for 3 sec. C6-NBD-dihydro-ceramide and C6-NBD-dihydro-galactosylceramide were co-eluted into the mass spectrometer using acetonitrile containing 0.1% formic acid at the flow rate of 1.0 mL/min for 3 sec. The total cycle time of one injection was 8 secs. The MS/MS detection was performed in ESI negative mode. The mass transition of C6-NBD-dihydro-galactosylceramide was m/z 752.6→678.6 using a −40 V collision energy, the mass transition of C6-NBD-dihydro-ceramide was m/z 590.6→115.8 using a −40 V collision energy and the mass transition of N-docdecanoyl-NBD-galactosylceramide was m/z 820.9→746.3 using a −45 V collision energy.
The C6-NBD-dihydro-galactosylceramide reading was normalized first by dividing the peak area of C6-NBD-dihydro-galactosylceramide by the peak area of the internal standard, N-docdecanoyl-NBD-galactosylceramide. IC50 values (see Table 1, where data ranges with one asterix (*) correspond to analysis using the RapidFire/MS/MS method, and data ranges with two asterixes (**) correspond to analysis using the RapidFire/MS/MS method with 0.01% Tween added) were generated from sigmoidal dose-response curves (variable slope) with GraphPad Prism software (GraphPad Software, Inc., San Diego, Calif.) using the normalized peak areas of C6-NBD-dihydro-galactosylceramide or the percent inhibition of C6-NBD-dihydro-galactosylceramide accumulation relative to DMSO control. […]
Regarding `COc1cc(C(F)(F)[C@H](NS(=O)(=O)c2ccc(OCC3CCCCC3)cc2)C(=O)N2CCC(N)CC2)ccc1Br` [Compound 145-1, (R)—N-(3-(4-aminopiperidin-1-yl)-1-(4-bromo-3-methoxyphenyl)-1,1-difluoro-3-oxopropan-2-yl)-4-(cyclohexylmethoxy)benzenesulfonamide trifluoroacetate], the IC50 is under 1 µM.
The compound `COc1cc(C(F)(F)[C@H](NS(=O)(=O)c2ccc(OCC3CCCCC3)cc2)C(=O)N2CCC(N)CC2)ccc1-c1ccc(Cl)cc1` [Compound 146-1, (R)—N-(3-(4-aminopiperidin-1-yl)-1-(4′-chloro-2-methoxy-[1,1′-biphenyl]-4-yl)-1,1-difluoro-3-oxopropan-2-yl)-4-(cyclohexylmethoxy) benzenesulfonamide trifluoroacetate] displayed an IC50 of under 1 µM.
Still for that read-out and setting: next, `COc1cc(C(F)(F)[C@@H](NS(=O)(=O)c2ccc(OCC3CCCCC3)cc2)C(=O)N2CCC(N)CC2)ccc1-c1ccc(Cl)cc1` [Compound 146-2, (S)—N-(3-(4-aminopiperidin-1-yl)-1-(4′-chloro-2-methoxy-[1,1′-biphenyl]-4-yl)-1,1-difluoro-3-oxopropan-2-yl)-4-(cyclohexylmethoxy)benzenesulfonamide trifluoroacetate]: 1 to 10 µM.
On the same count and under the same terms, as for `O=C([C@@H](NS(=O)(=O)c1ccc2cc(OC3CCCC3)ccc2c1)C(F)(F)c1ccc(-c2ccc(Cl)cc2)cc1)N1C[C@H]2CNC[C@H]2C1` [Compound 147-1, N—((R)-1-(4′-chloro-[1,1′-biphenyl]-4-yl)-1,1-difluoro-3-((3aR,6aS)-hexahydropyrrolo[3,4-c]pyrrol-2(1H)-yl)-3-oxopropan-2-yl)-6-(cyclopentyloxy) naphthalene-2-sulfonamide trifluoroacetate], the figure is under 1 µM; as for `O=C([C@H](NS(=O)(=O)c1ccc2cc(OC3CCCC3)ccc2c1)C(F)(F)c1ccc(-c2ccc(Cl)cc2)cc1)N1C[C@H]2CNC[C@H]2C1` [Compound 147-2, N—((S)-1-(4′-chloro-[1,1′-biphenyl]-4-yl)-1,1-difluoro-3-((3aR,6aS)-hexahydropyrrolo[3,4-c]pyrrol-2(1H)-yl)-3-oxopropan-2-yl)-6-(cyclopentyloxy)naphthalene-2-sulfonamide trifluoroacetate], 10 to 30 µM.
For the compound `N[C@H]1CCN(C(=O)[C@@H](NS(=O)(=O)c2ccc3cc(OC4CCCC4)ccc3c2)C(F)(F)c2ccc(-c3ccc(Cl)cc3)cc2)C1` [Compound 148-1, N—((R)-3-((S)-3-aminopyrrolidin-1-yl)-1-(4′-chloro-[1,1′-biphenyl]-4-yl)-1,1-difluoro-3-oxopropan-2-yl)-6-(cyclopentyloxy)naphthalene-2-sulfonamide trifluoroacetate], the IC50 was in the range of 1 to 10 µM.
The same measure, in the same setting: next, `N[C@H]1CCN(C(=O)[C@H](NS(=O)(=O)c2ccc3cc(OC4CCCC4)ccc3c2)C(F)(F)c2ccc(-c3ccc(Cl)cc3)cc2)C1` [Compound 148-2, N—((S)-3-((S)-3-aminopyrrolidin-1-yl)-1-(4′-chloro-[1,1′-biphenyl]-4-yl)-1,1-difluoro-3-oxopropan-2-yl)-6-(cyclopentyloxy)naphthalene-2-sulfonamide trifluoroacetate]: 10 to 30 µM; `N[C@@H]1CCN(C(=O)[C@@H](NS(=O)(=O)c2ccc3cc(OC4CCCC4)ccc3c2)C(F)(F)c2ccc(-c3ccc(Cl)cc3)cc2)C1` [Compound 149-1, N—((R)-3-((R)-3-aminopyrrolidin-1-yl)-1-(4′-chloro-[1,1′-biphenyl]-4-yl)-1,1-difluoro-3-oxopropan-2-yl)-6-(cyclopentyloxy)naphthalene-2-sulfonamide trifluoroacetate]: under 1 µM.

Still in this assay, the particulars now being: CGT enzyme assay, RapidFire/MS/MS method with 0.01% Tween added (range with two asterisks **).
As to `COc1cc(C(F)(F)[C@@H](NS(=O)(=O)c2ccc(OCC3CCCCC3)cc2)C(=O)N2C3CCC2CC(N)C3)ccc1-c1ccc(Cl)cc1` (stereo partly drawn) [Compound 142-2, N-((2S)-3-(3-amino-8-azabicyclo[3.2.1]octan-8-yl)-1-(4′-chloro-2-methoxy-[1,1′-biphenyl]-4-yl)-1,1-difluoro-3-oxopropan-2-yl)-4-(cyclohexylmethoxy)benzenesulfonamide trifluoroacetate], the 50% inhibitory concentration (IC50) lay in the range of 1 to 10 µM.
With `COc1cc(C(F)(F)[C@H](NS(=O)(=O)c2ccc3cc(OC4CCCC4)ccc3c2)C(=O)N2CCC(N)CC2)ccc1Br` [Compound 143-1, (R)—N-(3-(4-aminopiperidin-1-yl)-1-(4-bromo-3-methoxyphenyl)-1,1-difluoro-3-oxopropan-2-yl)-6-(cyclopentyloxy)naphthalene-2-sulfonamide trifluoroacetate], the IC50 lay within 1 to 10 µM.
The same measure, in the same setting: as for `COc1cc(C(F)(F)[C@@H](NS(=O)(=O)c2ccc3cc(OC4CCCC4)ccc3c2)C(=O)N2CCC(N)CC2)ccc1Br` [Compound 143-2, (S)—N-(3-(4-aminopiperidin-1-yl)-1-(4-bromo-3-methoxyphenyl)-1,1-difluoro-3-oxopropan-2-yl)-6-(cyclopentyloxy) naphthalene-2-sulfonamide trifluoroacetate], the figure is 1 to 10 µM; as for `COc1cc(C(F)(F)[C@H](NS(=O)(=O)c2ccc3cc(OC4CCCC4)ccc3c2)C(=O)N2CCC(N)CC2)ccc1-c1ccc(Cl)cc1` [Compound 144-1, (R)—N-(3-(4-aminopiperidin-1-yl)-1-(4′-chloro-2-methoxy-[1,1′-biphenyl]-4-yl)-1,1-difluoro-3-oxopropan-2-yl)-6-(cyclopentyloxy)naphthalene-2-sulfonamide trifluoroacetate], under 1 µM; as for `COc1cc(C(F)(F)[C@@H](NS(=O)(=O)c2ccc3cc(OC4CCCC4)ccc3c2)C(=O)N2CCC(N)CC2)ccc1-c1ccc(Cl)cc1` [Compound 144-2, (S)—N-(3-(4-aminopiperidin-1-yl)-1-(4′-chloro-2-methoxy-[1,1′-biphenyl]-4-yl)-1,1-difluoro-3-oxopropan-2-yl)-6-(cyclopentyloxy) naphthalene-2-sulfonamide trifluoroacetate], 1 to 10 µM.
Same read-out and setting: as for `COc1cc(C(F)(F)[C@@H](NS(=O)(=O)c2ccc(OCC3CCCCC3)cc2)C(=O)N2CCC(N)CC2)ccc1Br` [Compound 145-2, (S)—N-(3-(4-aminopiperidin-1-yl)-1-(4-bromo-3-methoxyphenyl)-1,1-difluoro-3-oxopropan-2-yl)-4-(cyclohexylmethoxy) benzenesulfonamide trifluoroacetate], the figure is 30 to 100 µM.
